# Results from patent publication US10391079B2, “Methods of diagnosing and treating Alzheimer's disease with S-equol” (Ausio Pharmaceuticals, LLC, priority 2016, dated 2019).
# “Also recorded” adds a separate entry of the source.
# How the values were obtained:
# [1] = system: Alzheimer's disease patients; assay: Safety analysis of S-equol 10 mg twice per day; format: in vivo, human; conditions: S-equol 10 mg twice per day for two weeks
# Experimental: (§1) Subjects received a two week supply of medication, which uniformly consisted of placebo, and were instructed to take the study medication twice a day. At the end of this initial two-week period participants returned to the ADC clinical trials unit for their first study visit (visit 1; lead-in evaluation). Visit 1 procedures included an assessment of study medication compliance, vital signs, a query for perceived side effects, the Montreal Cognitive Assessment (MoCA), and a 40 ml phlebotomy; the blood was used to measure platelet mitochondria cytochrome oxidase (COX) and citrate synthase (CS) activities. At the completion of this visit the next two weeks of study medication was dispensed, which uniformly consisted of 10 mg S-equol capsule.
# (§2) Secondary outcomes included a safety analysis of the S-equol 10 mg twice per day dose and an analysis of MoCA scores.
# [2] = system: platelet mitochondria cytochrome oxidase (COX); assay: Platelet mitochondria COX activity referenced to CS activity (COX/CS) in S-equol pilot study; format: in vivo, human; conditions: for COX/CS Visit 3 (Mean ± SEM): wash-out, 2 weeks placebo after S-equol
# Experimental: as §1
# (§3) At the end of this second two-week period participants returned to the ADC clinical trials unit for their second study visit (visit 2; active treatment evaluation). The same procedures were performed during the lead-in evaluation and dispensed the next two weeks of study medication, which at this point uniformly consisted of placebo.
# (§4) At the end of this final two-week period the participants returned to the ADC clinical trials unit for their third study visit (visit 3; wash-out evaluation). The lead-in and active treatment evaluation procedures were performed again, which completed participation in this single-blind study.
# Forty milliliter blood samples were collected in tubes containing acid-citrate-dextrose (ACD) tubes as an anticoagulant, and maintained at room temperature. Within 24 hours of phlebotomy the blood was processed by the ADC Mitochondrial Genomics and Metabolism Core. To initiate the processing procedure, platelets were isolated by centrifugation and enriched mitochondrial fractions prepared using previously described methods. Such procedures involved nitrogen cavitation to rupture platelets followed by centrifugation to collect mitochondria.
# The protein concentrations of the enriched mitochondrial fractions were measured using a BCA protein assay kit (BioRad, Hercules, Calif.). COX Vmax activity was determined as a pseudo first order-rate constant (sec-1/mg) by measuring the oxidation of reduced cytochrome c at 550 nm.
# In addition to measuring COX activity, each sample's citrate synthase (CS) Vmax activity (nmol/min/mg) was measured. This assay was performed spectrophotometrically by following the formation of 5-thio-2-nitrobenzoate (412 nm) following the addition of 100 μM oxaloacetate at 30° C. In addition to referencing COX activities to total protein, potential inter-sample differences in mitochondrial mass was corrected by referencing the COX activity for each sample to its corresponding CS activity.
# An S-equol-associated modification of platelet mitochondria COX activity was designated as the primary outcome measure. To determine whether an S-equol-associated change in platelet mitochondrial COX activity occurred for an individual participant, an anticipated pattern of response analysis was used. It was expected that platelet mitochondria COX activity would increase in response to the active treatment.
# Participants were identified as responding (i.e., increasing COX activity in response to treatment, classified as “successes” or “responders”) if the individual change (slope) from the lead-in measurement to the active treatment measurement was greater than the change (slope) from the active-treatment measurement to the wash-out (visit 3) measurement.
# [3] = system: Alzheimer's disease subjects; assay: Montreal Cognitive Assessment (MoCA) in single-blind S-equol pilot study; format: in vivo, human; conditions: for MoCA Visit 3 (Mean ± SEM): wash-out evaluation, 2 weeks placebo after S-equol; for percent MoCA score change between visit 1 and visit 2: FIG. 1
# Experimental: Alzheimer's disease subjects were recruited through the University of Kansas Alzheimer's Disease Center (ADC). The ADC maintains a clinical cohort whose routine characterizations include Clinical Dementia Rating (CDR) scale ratings, uniform data set (UDS) cognitive testing, and APOE genotyping. The diagnosis of clinic cohort participants is primarily based on CDR and UDS data, and is determined through a consensus conference that includes subspecialty-trained cognitive neurologists and an expert neuropsychologist. Subjects diagnosed with Alzheimer's disease further meet current criteria for that diagnosis in McKhann et al., Alzheimers Dement, 7 (2011) 263-269.
# To qualify for the study, participants had to be female with very mild (CDR 0.5) or mild (CDR 1) Alzheimer's disease. Each participant was required to have a study partner. As part of the informed consent process, the subjects and study partners were told that during different parts of the study the participants would receive either an S-equol capsule or an inert placebo. The placebo could not be distinguished from the S-equol by sight, touch, or taste so although the investigators knew whether participants at any given point were receiving S-equol or placebo, the participants themselves were blind to the actual treatment. The S-equol and placebo capsule were provided by Ausio Pharmaceuticals, LLC (Cincinnati, Ohio).
# as §1, §3, §4, §2
# cytochrome oxidase (COX) = conditions: brains from ovariectomized mice; cited from earlier work
structure (smiles),measurement,setting,value
Oc1ccc([C@H]2COc3cc(O)ccc3C2)cc1 [S-equol],adverse events,[1],No treatment-related adverse events (either serious or non-serious) were observed; also recorded: No adverse events occurred
same,COX/CS Visit 3 (Mean ± SEM),"[2]; APOE4 carriers, 8 participants",4.4e-05
same,COX/CS Visit 3 (Mean ± SEM),"[2]; APOE4 non-carriers, outlier excluded, 6 participants",4.1e-05
same,COX/CS Visit 3 (Mean ± SEM),"[2]; APOE4 non-carriers, outlier included, 7 participants",5.1E−05 ± 1.1E−05
same,COX/CS Visit 3 (Mean ± SEM),"[2]; Total, outlier excluded, 14 participants",4.2e-05
same,COX/CS Visit 3 (Mean ± SEM),"[2]; Total, outlier included, 15 participants",4.7e-05
same,percent COX/CS change between visit 1 and visit 2,"[2]; non-APOE4 carriers versus APOE4 carriers, FIG. 3",trended higher in the non-APOE4 carriers than it did in the APOE4 carriers
same,"differences in mean COX/CS values between visits, or between APOE4 carriers and non-carriers",[2]; visits 1-3,No significant differences were observed
same,MoCA Visit 3 (Mean ± SEM),"[3]; APOE4 carriers, 8 participants",15.9 ± 2.7
same,percent MoCA score change between visit 1 and visit 2,[3]; APOE4 carriers,trended in a downward direction
same,MoCA Visit 3 (Mean ± SEM),"[3]; APOE4 non-carriers, 7 participants",12.4 ± 1.6
same,percent MoCA score change between visit 1 and visit 2,[3]; APOE4 non-carriers,in an upward direction
same,MoCA Visit 3 (Mean ± SEM),"[3]; Total, 15 participants",14.3 ± 1.6
same,"differences in mean MoCA scores between visits, or between APOE4 carriers and non-carriers",[3]; visits 1-3,No significant differences were observed
same,COX1 protein levels,cytochrome oxidase (COX),increase
same,cytochrome oxidase (COX) activity,cytochrome oxidase (COX),increase
